From US8080580B2, “Dioxa-bicyclo[3.2.1]octane-2,3,4-triol derivatives” (Pfizer Inc., priority 2008, dated 2011) come the findings set out here.

For one series, the target named is T1, hSGLT1 (Homo sapiens, UniProt P13866).
T1 sequence (P13866 1-664): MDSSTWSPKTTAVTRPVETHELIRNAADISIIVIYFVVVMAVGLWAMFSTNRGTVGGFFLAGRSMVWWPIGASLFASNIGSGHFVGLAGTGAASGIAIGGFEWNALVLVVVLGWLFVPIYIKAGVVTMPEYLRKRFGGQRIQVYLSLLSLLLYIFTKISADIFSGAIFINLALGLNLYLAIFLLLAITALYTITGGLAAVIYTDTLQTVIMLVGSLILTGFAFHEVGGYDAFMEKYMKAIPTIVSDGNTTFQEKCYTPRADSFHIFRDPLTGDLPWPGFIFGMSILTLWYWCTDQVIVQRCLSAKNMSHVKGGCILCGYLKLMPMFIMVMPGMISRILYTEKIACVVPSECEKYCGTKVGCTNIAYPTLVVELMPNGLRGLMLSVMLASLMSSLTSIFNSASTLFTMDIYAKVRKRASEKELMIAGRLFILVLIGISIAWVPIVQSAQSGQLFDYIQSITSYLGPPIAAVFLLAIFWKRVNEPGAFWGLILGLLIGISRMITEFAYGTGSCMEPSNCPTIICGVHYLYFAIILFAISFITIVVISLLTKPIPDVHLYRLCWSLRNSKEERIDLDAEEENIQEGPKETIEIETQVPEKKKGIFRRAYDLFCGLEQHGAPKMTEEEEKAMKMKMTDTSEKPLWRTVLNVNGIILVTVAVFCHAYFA
The series can be described thus: SGLT1 functional assay: hSGLT1 IC50 (selectivity counter-screen to the SGLT2 AMG uptake assay). It is filed as cell-based. The settings on record: individual runs (Run No.). (Counterscreens check selectivity or assay interference.)

The target of another series is T2, human SGLT2 (Homo sapiens, UniProt P31639).
T2 construct: expressed in transfected cells; host or cells: CHO-FlpIn (Invitrogen)
T2 sequence (P31639 1-672): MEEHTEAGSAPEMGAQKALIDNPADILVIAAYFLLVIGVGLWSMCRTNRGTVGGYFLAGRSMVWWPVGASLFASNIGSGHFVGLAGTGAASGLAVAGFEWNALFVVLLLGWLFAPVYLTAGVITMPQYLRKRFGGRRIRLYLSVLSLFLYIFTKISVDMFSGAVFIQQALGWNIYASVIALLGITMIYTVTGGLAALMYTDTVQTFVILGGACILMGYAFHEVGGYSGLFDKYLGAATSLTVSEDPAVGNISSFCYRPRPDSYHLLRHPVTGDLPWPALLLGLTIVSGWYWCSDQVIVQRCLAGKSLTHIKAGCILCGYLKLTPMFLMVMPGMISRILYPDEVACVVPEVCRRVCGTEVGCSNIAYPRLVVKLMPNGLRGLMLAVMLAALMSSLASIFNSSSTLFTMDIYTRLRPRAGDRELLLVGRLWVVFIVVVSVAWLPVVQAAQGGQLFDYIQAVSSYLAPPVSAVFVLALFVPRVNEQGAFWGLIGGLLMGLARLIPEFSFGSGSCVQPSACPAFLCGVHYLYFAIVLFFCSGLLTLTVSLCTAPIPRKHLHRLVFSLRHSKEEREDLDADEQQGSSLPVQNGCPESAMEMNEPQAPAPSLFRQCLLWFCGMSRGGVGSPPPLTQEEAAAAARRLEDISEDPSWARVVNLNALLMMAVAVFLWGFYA
The series is described as follows: SGLT2 functional assay: inhibition of AMG uptake in CHO-FlpIn cells stably expressing human SGLT2. The settings on record: individual runs (Run No.), read-out: hSGLT2 IC50. Format: cell-based. The source says:
The SGLT2 functional assay was designed to detect the inhibition of methyl-alpha-D glucopyranoside (AMG—a non-metabolizable form of glucose) uptake via the SGLT2 transporter. The SGLT2 transporter recovers glucose from the proximal tubules of the kidney; its inhibition results in sugar wasted in the urine. The positive control compound, Phlorizin, is a known inhibitor of glucose uptake for SGLT2 and was used for comparing the high percent effect of SGLT2 inhibition of the test compounds.
CHO-FlpIn (Invitrogen, Carlsbad, Calif.) cells stably expressing human SGLT2 (pcDNA5/FRT) were plated in Iso-TC 96 well plates (Perkin Elmer, Waltham, Mass.) at a density of 100,000 cells/well in 100 microL of growth media (1:1 F-12/DMEM media (Gibco, Carlsbad, Calif.), 10% FBS (Sigma, St. Louis Mo.), 1× Pen/Strep (Gibco, Carlsbad, Calif.), 600 microg/mL Hygromycin (Invitrogen, Carlsbad, Calif.)). Prior to treating with test compound, confluent cells were serum starved for 2 hours at 37° C. in 1:1 F-12/DMEM media, replacing with fresh F-12/DMEM media after 1 hour. […] Cell plates were then incubated for 3 hours at 37° C. for AMG uptake.

Series [1] is described as follows: Pharmacokinetic testing in rats (IV or PO). It is filed as in vivo. The settings on record: rat. The procedure:
Examples 1A, 2A, 4A, 12A, and 14A were tested in rats to assess pharmacokinetic parameters including maximum concentration (Cmax), area under the plasma concentration time curve (AUC), clearance (CL), steady state volume of distribution (Vss), half life (t1/2), and bioavailability (F). Male Sprague Dawley rats (˜300 g) were used. Rats received compound by intravenous (IV) or oral gavage (PO) administration and the doses tested including vehicle to formulate dosing solutions are listed in Table 5.
Following IV or PO administration, 0.2 mL blood was sampled from the jugular vein at various timepoints (Table 5). Twenty microL aliquots of plasma samples and standards were subjected to protein precipitation with acetonitrile containing an internal standard. Samples were vortexed and centrifuged to obtain supernatant which was analyzed by LC-MS/MS. Analyst (Version 1.4.1) was used to measure peak areas and peak area ratios of analyte to internal standard were calculated. LC-MS/MS conditions are as follows: Mass Spectrometer+Source Type was Sciex API 4000−Turbo Spray; HPLC pump was Shimadzu; Autosampler was CTC PAL Autosampler; Injection volume was 3.0 to 10 microL; A gradient was used with mobile phase A: 10 mM ammonium acetate and 1% Isopropyl alcohol in water; B: Acetonitrile; Flowrate 0.300 mL per minute (Column 2.0×30 mm 5 microm LUNA C18 column (phenomenex)). Detection mode was negative.
A calibration curve was constructed from the peak area ratios of the standards to the internal standard by applying a weighted linear (1/x or 1/x2) regression. The dynamic range of the standard curve was 5.00 ng/mL to 5000 ng/mL.
Pharmacokinetic parameters were determined from individual animal data using non-compartmental analysis in Watson (version 7.2). Concentrations below the limit of quantitation (BLQ) were recorded as 0 ng/mL for use in calculations.
The following calculations were used: AUC(0−τ)=Determined using the linear trapezoidal method AUC(0−□)=AUC(0−τ) plus extrapolated area determined by dividing plasma concentration at τ by the slope of the terminal log-linear phase CL=Dose/AUC(0−∞) Vdss=CL×MRT Cmax=Recorded directly from plasma concentration time curve Tmax=Recorded directly from plasma concentration time curve t½=ln(0.5)/slope of the terminal log-linear phase F %=AUC(0−∞)PO per dose/AUC(0−∞)IV per dose C(0)=Extrapolated by linear regression from the apparent distribution phase following IV administration MRT=AUMC(AUC(0−∞)/AUC(0−∞)

[2] abbreviates: male, Sprague Dawley, plasma, IV, 2 mg/kg.
[3] abbreviates: male, Sprague Dawley, plasma, PO, 10 mg/kg, PEG200/0.5% MC.

Structures are written as SMILES. Several values for one entry are separate records, joined by “and”; a condition that tells them apart may be missing. Equal values may be shown once.

For the compound `COc1ccc(Cc2cc([C@]34OC[C@](CO)(O3)[C@@H](O)[C@H](O)[C@H]4O)ccc2Cl)cc1` [Example 3A, (1S,2S,3S,4R,5S)-5-[4-chloro-3-(4-methoxy-benzyl)-phenyl]-1-hydroxymethyl-6,8-dioxa-bicyclo[3.2.1]octane-2,3,4-triol], the IC50 on hSGLT1 is 543 nM and 397 nM and 550 nM and 757 nM and 523 nM and 672 nM and 380 nM. Besides, the IC50 on human SGLT2 was 0.479 nM and 0.972 nM and 1.39 nM and 0.811 nM and 0.602 nM and 0.588 nM and 1.35 nM. Also, in series [1] (setting [2]), the AUC(0-inf) came out at 1410 ng·h/mL and the half-life is 1.58 h. Also, in series [1] (IV, 2 mg/kg), the CL was 23.8 mL/min/kg and the Vss worked out at 1.82 L/kg.

`OC[C@@]12CO[C@@](c3ccc(Cl)c(Cc4ccc(OC5COC5)cc4)c3)(O1)[C@H](O)[C@@H](O)[C@@H]2O` [Example 14A, (1S,2S,3S,4R,5S)-5-{4-chloro-3-[4-(oxetan-3-yloxy)-benzyl]-phenyl}-1-hydroxymethyl-6,8-dioxa-bicyclo[3.2.1]octane-2,3,4-triol]: the IC50 at hSGLT1 was over 10000 nM. For the same compound, on human SGLT2, the IC50 is 2.28 nM and 3.12 nM and 2.39 nM and 2.87 nM. For the same compound, in series [1] (setting [2]), the AUC(0-inf) turned out to be 1060 ng·h/mL, the clearance stood at 31.7 mL/min/kg and the half-life was 1.36 h. For the same compound, in series [1] (male, Sprague Dawley, plasma, IV, 2 mg/kg, read-out: Vss), the Vd was found to be 1.69 L/kg. In addition, in series [1] (setting [3]), the total exposure AUC(0-inf) stood at 2290 ng·h/mL, the maximum concentration (Cmax) stood at 551 ng/mL and the half-life was 1.71 h. Further, the F in series [1] (PO, 10 mg/kg, PEG200/0.5% MC) came to 43.5%.

In general, IC50 refers to the midpoint of a concentration-inhibition curve. A word on the AUC(0-inf): it is total exposure, with the tail of the curve extrapolated. As usually defined, the half-life is the time needed for the level to fall by half in the phase considered. A word on the Cmax: it is the highest concentration seen after dosing.
